In test [1] the target is T1, human IDO1 expressing HEK293 recombinant cells (Homo sapiens, UniProt P14902).
T1 construct: expressed in transfected cells; host or cells: Flp-In-Rex- HEK293 cells (Invitrogen), pcDNA5/FRT/TO vector, doxycycline-induced
The test is described as follows: Cell based assay for anti-IDO1 activity by determination of tryptophan and kynurenine in culture supernatant using LC-MS. As to conditions: for IC50: human IDO1-expressing HEK293 cells, doxycycline induced, 24 h, dose-response curve. How it is done: All synthesized compounds were evaluated for inhibitory activities against IDO1. For this purpose, we generated human IDO1 gene-expressing HEK293 recombinant cells and used those cells to analyze the inhibitory capacity of the compounds. Briefly, we induced the expression vector system of IDO1 by treating […] cells with doxycycline, and measured both the depletion of L-tryptophan in culture media and the generation of kynurenine in IDO1-overexpressing HEK293 cells by using the LC-MS system upon culture supernatants.
cDNA of human IDO1 gene (provided from Korean UniGene, Daejeon, Korea) was inserted into pcDNA5/FRT/TO expression vector (Invitrogen, Waltham, MA, USA) and transfected into Flp-In-Rex- HEK293 cells (Invitrogen). After transfection, homogenous IDO1 expressing HEK293 cells were selected using hygromycin and confirmed for their IDO1 expression using Western blot.
To analyze anti-IDO1 activity of compounds, human IDO1 expressing HEK293 recombinant cells were seeded in 100 μL of complete MEM media containing 10% FBS in a 96-well plate. After incubation for 48 hours, various concentrations of compounds with 0.2 ng/mL doxycyclin (Sigma Aldrich, St. Louis, MO, USA) was treated and incubated for 24 h. Culture supernatants were collected and prepared for analysis of tryptophan and kynurenine using LC-MS. For preparation of samples for LC-MS analysis, 30 μL of culture supernatant was mixed with 2 μM caffeine containing 270 μL methanol. After centrifugation at 12,000 rpm for 10 min, 100 μL of supernatant was transferred into new 1.5 mL tubes. Distilled water (900 μL) was added into 100 μL of supernatant and vortexed. The concentrations of tryptophan and kynurenine were determined by an LC-MS/MS system consisting of an Agilent 1200 series HPLC system (Agilent Technologies, Santa Clara, CA, USA) with an API 4000 QTRAP hybrid triple quadrupole/linear ion trap mass spectrometer (AB Sciex, Foster City, CA, USA) equipped with a turbo electrospray interface. Chromatographic separation of tryptophan and kynurenine was achieved on a Unison UK-C18 column (100 mm × 2 mm i.d., 3 μm; Imtakt, Kyoto, Japan) with a Security Guard C18 guard column (4 mm × 20 mm i.d.; Phenomenex, Torrance, CA, USA) maintained at 25 °C. Isocratic mode was used to achieve separation of the analytes using mobile phase (acetonitrile with 0.1 formic acid and water with 0.1% formic acid (20:80 v/v) at a flow rate of 300 μL/min for 3 min. The multiple reaction monitoring (MRM) transition was m/z 204.94 → 188.1 for tryptophan and m/z 208.97 → 192.00 for kynurenine under positive-ionization. Optimized values for de-clustering potential, collision energy, entrance potential, and collision-exit potential were 26 V, 15 eV, 9.5 V and 8 V and 21 V, 13 eV, 10 V and 8 V for tryptophan and kynurenine, respectively. The optimized instrument conditions were as follows: ion spray voltage, 5500 V; source temperature, 450 °C; curtain gas, 25 psi; nebulizing gas (GS1), 30 psi; heating gas (GS2), 30 psi. Data analysis was performed using Analyst Software version 1.4.2. (AB Sciex, Foster City, CA, USA).

The target in the next test is T2, hIDO1 (Homo sapiens, UniProt P14902).
T2 construct: purchased BPS Bioscience (San Diego, CA, USA)
As to the kind of experiment: hIDO1 enzymatic assay (BPS Bioscience IDO1 inhibitor screening assay kit). In kind it is biochemical. To be noted: for inhibition at 20 µM: 20 µM compound, enzymatic assay. How it is done:
To analyze the hIDO1 inhibitory activities of compounds, we used IDO1 inhibitor screening assay kit and followed the protocol provided from BPS Bioscience (San Diego, CA, USA). Briefly, 5 μL of IDO solution was aliquoted into a 384-well plate and treated with 5 μL of compound in buffer at room temperature for 3 h. The data was measured at λ = 320 to 325 nm.

[2] abbreviates: kynurenine by LC-MS, read-out: HEK293 IC50 Kynurenine Production.
The mark [3] stands for this setting: tryptophan by LC-MS, read-out: HEK293 IC50 Tryptophan Depletion.

Each structure is given as a SMILES string. Entries after “also recorded” stand apart in the source; their conditions may differ. Read-outs that look alike come from different tables or passages of the source.

The IC50 is the concentration that gives 50% inhibition. A word on the inhibition: it is the share of the control response that was lost under treatment. A higher inhibition goes with strong suppression.

T1 sequence (P14902 whole entry): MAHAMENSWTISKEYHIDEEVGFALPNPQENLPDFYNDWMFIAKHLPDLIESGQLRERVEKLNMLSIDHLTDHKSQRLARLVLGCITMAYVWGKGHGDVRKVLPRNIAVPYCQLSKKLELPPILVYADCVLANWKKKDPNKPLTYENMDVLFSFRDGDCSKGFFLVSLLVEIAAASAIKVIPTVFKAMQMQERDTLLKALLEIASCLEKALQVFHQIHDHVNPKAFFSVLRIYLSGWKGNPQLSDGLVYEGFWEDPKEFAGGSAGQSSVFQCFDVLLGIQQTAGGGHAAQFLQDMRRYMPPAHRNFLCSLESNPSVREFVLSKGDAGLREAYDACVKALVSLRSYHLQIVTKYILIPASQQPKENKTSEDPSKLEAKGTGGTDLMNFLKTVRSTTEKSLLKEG
T2 sequence (P14902 whole entry): as above

Regarding `COc1ccc(N/C(=N\O)c2cccc3cn[nH]c23)cc1Cl` [Compound 8i, (Z)-N-(3-Chloro-4-methoxyphenyl)-N′-hydroxy-1H-indazole-7-carboximidamide], the IC50 in test [1] (setting [2]) and in test [1] (setting [3]) was more than 10 µM each time.
For the molecule `O/N=C(\Nc1cc(F)ccc1F)c1cccc2cn[nH]c12` [Compound 8e, (Z)-N-(2,5-Difluorophenyl)-N′-hydroxy-1H-indazole-7-carboximidamide], the IC50 in test [1] (setting [2]) and in test [1] (setting [3]) was more than 10 µM in each case.
In the case of `O/N=C(\Nc1ccc(F)c(Cl)c1)c1cccc2cn[nH]c12` [Compound 8b, (Z)-N-(3-Chloro-4-fluorophenyl)-N′-hydroxy-1H-indazole-7-carboximidamide], at hIDO1, the inhibition at 20 µM stood at 79%. For the same molecule, the IC50 in test [1] (setting [2]) was 3.14 µM; in test [1] (setting [3]), 3.26 µM.
Take `O/N=C(\Nc1ccccc1)c1cccc2cn[nH]c12` [Compound 8j, (Z)-N′-Hydroxy-N-phenyl-1H-indazole-7-carboximidamide]: the IC50 in test [1] (setting [2]) and in test [1] (setting [3]) was more than 10 µM throughout.
Take `O/N=C(\Nc1cccc(Cl)c1)c1cccc2cn[nH]c12` [Compound 8c, (Z)-N-(3-Chlorophenyl)-N′-hydroxy-1H-indazole-7-carboximidamide]: the inhibition at 20 µM against hIDO1 was found to be 77%. For the same molecule, the values for the IC50 in test [1] (setting [2]) and in test [1] (setting [3]) were 4.89 µM and 4.95 µM, respectively.
Consider `Cc1cccc(N/C(=N\O)c2cccc3cn[nH]c23)c1` [Compound 8g, (Z)-N′-Hydroxy-N-(m-tolyl)-1H-indazole-7-carboximidamide], for which the IC50 in test [1] (setting [2]) and in test [1] (setting [3]) was more than 10 µM in each case.
For the molecule `CC(=O)c1cccc(N/C(=N\O)c2cccc3cn[nH]c23)c1` [Compound 8f, (Z)-N-(3-Acetylphenyl)-N′-hydroxy-1H-indazole-7-carboximidamide], the IC50 in test [1] (setting [2]) and in test [1] (setting [3]) was more than 10 µM throughout.
As for `O/N=C(\Nc1ccc(F)cc1)c1cccc2cn[nH]c12` [Compound 8d, (Z)-N-(4-Fluorophenyl)-N′-hydroxy-1H-indazole-7-carboximidamide], the IC50 in test [1] (setting [2]) and in test [1] (setting [3]) was more than 10 µM in each case.
As to `O/N=C(\Nc1ccc(F)c(Br)c1)c1cccc2cn[nH]c12` [Compound 8a, (Z)-N-(3-Bromo-4-fluorophenyl)-N′-hydroxy-1H-indazole-7-carboximidamide], the inhibition at 20 µM against hIDO1 came to 81%. In addition, the “IDO1 inhibition in cell-based assay (in words)” value in test [1] is reported as “most active in this series; also recorded: moderate IDO1 inhibitory activity”. Besides, the IC50 is 2.13 µM in test [1] (setting [2]) and 1.76 µM in test [1] (setting [3]).
Take `COc1ccc(N/C(=N\O)c2cccc3cn[nH]c23)cc1` [Compound 8l, (Z)-N′-Hydroxy-N-(4-methoxyphenyl)-1H-indazole-7-carboximidamide]: the IC50 in test [1] (setting [2]) and in test [1] (setting [3]) was more than 10 µM each time.
Take `Cc1ccc(N/C(=N\O)c2cccc3cn[nH]c23)cc1` [Compound 8m, (Z)-N′-Hydroxy-N-(p-tolyl)-1H-indazole-7-carboximidamide]: the IC50 in test [1] (setting [2]) and in test [1] (setting [3]) was more than 10 µM in each case.
Regarding `O/N=C(\Nc1ccc(Cl)cc1)c1cccc2cn[nH]c12` [Compound 8k, (Z)-N-(4-Chlorophenyl)-N′-hydroxy-1H-indazole-7-carboximidamide], the IC50 in test [1] (setting [2]) and in test [1] (setting [3]) was more than 10 µM in each case.
In the case of `Cn1ncc2cccc(/C(=N/O)Nc3ccc(F)c(Br)c3)c21` [Compound 12, (Z)-N-(3-Bromo-4-fluorophenyl)-N′-hydroxy-1-methyl-1H-indazole-7-carboximidamide], on hIDO1, the “hIDO1 inhibition in enzymatic assay (in words)” value is recorded as “did not inhibit IDO1” and the inhibition at 20 µM turned out to be 15%. Besides, the “IDO1 inhibition in cell-based assay (in words)” value in test [1] is “did not inhibit IDO1”. Further, the IC50 in test [1] (setting [2]) is more than 10 µM. Also, the IC50 in test [1] (setting [3]) is more than 10 µM.
As for `Cc1cc(N/C(=N\O)c2cccc3cn[nH]c23)ccc1Cl` [Compound 8h, (Z)-N-(4-Chloro-3-methylphenyl)-N′-hydroxy-1H-indazole-7-carboximidamide], the IC50 in test [1] (setting [2]) and in test [1] (setting [3]) was more than 10 µM each time.
For `O/N=C(\Nc1ccc(F)c(Br)c1)c1ccccc1O` [Compound 16, (Z)-N-(3-Bromo-4-fluorophenyl)-N′,2-dihydroxybenzimidamide], the “IDO1 inhibition in cell-based assay (in words)” value in test [1] was “moderate inhibitory activity”. Besides, the IC50 in test [1] (setting [2]) is 7.91 µM; in test [1] (setting [3]), 7.76 µM.

The values above are taken from publication PMC6150275, “Synthesis and Molecular Modeling Studies of N′-Hydroxyindazolecarboximidamides as Novel Indoleamine 2,3-Dioxygenase 1 (IDO1) Inhibitors” (Molecules : A Journal of Synthetic Chemistry and Natural …, 2017).
